Data as given in US20100285145A1, “GPR 119 MODULATORS” (PFIZER INC, priority 2009, published 2010).
“And” between values parts separate entries of the source, which are not always exact repeats. Equal entries are not always repeated.

molecular target: T1, human GPR119 (Homo sapiens, UniProt Q8TDV5); assay: GPR119 radioligand binding assay ([3H]-Compound A or B, membranes of HEK 293FT cells expressing hGPR119); parameters: host or cells: HEK293-CRE beta-lactamase; settings: calculated from IC50 with Cheng-Prusoff; each line a separate determination
T1 sequence (Q8TDV5 1-335): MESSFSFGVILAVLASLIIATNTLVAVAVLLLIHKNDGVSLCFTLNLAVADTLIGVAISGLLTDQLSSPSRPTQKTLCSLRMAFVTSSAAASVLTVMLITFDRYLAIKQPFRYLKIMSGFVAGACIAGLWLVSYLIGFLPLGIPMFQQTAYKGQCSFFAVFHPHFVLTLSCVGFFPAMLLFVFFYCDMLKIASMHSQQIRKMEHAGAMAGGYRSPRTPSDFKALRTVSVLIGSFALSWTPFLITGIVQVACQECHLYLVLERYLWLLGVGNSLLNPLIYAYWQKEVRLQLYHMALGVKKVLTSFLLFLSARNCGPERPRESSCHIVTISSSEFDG
Protocol: HEK 293FT cells (Invitrogen, Carlsbad, Calif.) were grown in a shake flask in 293Freestyle medium (Invitrogen) supplemented with 50 microg/mL neomycin and 10 mM HEPES (37C, 8% carbon dioxide, shaking). The cells were centrifuged gently (approximately 500×g, 10 minutes) and the pellet resuspended in a mixture of Dulbecco's PBS (minus Mg++/−Ca++) supplemented with 18% fetal bovine serum (Sigma Aldrich) and P1 virus such that the multiplicity of infection (MOI) was 10 and the final cell density was 1.3×10^6/mL (total volume 2.5 liters). The cells were transferred to a 5 liter Wave Bioreactor Wavebag (Wave Technologies, Mass.) and incubated for 4 hours at 27 degrees Celsius (17 rocks/min, 7 degrees platform angle); at the end of the incubation period, an equal volume (2.5 liters) of 293Freestyle medium supplemented with 30 mM sodium butyrate (Sigma Aldrich) was added (final concentration=15 mM), and the cells were grown for 20 hours (37 degrees Celsius, 8% CO2 [0.2 liters/min}, 25 rocks/minute, 7 degrees platform angle). Cells were harvested via centrifugation (3,000×g, 10 minutes), washed once on DPBS (minus Ca++/Mg++), resuspended in 0.25M sucrose, 25 mM HEPES, 0.5 mM EDTA, pH 7.4 and frozen at −80 degrees Celsius.
The frozen cells were thawed on ice and centrifuged at 700×g (1400 rpm) for 10 minutes at 4 degrees Celsius. The cell pellet was resuspended in 20 mL phosphate-buffered saline, and centrifuged at 1400 rpm for 10 minutes. The cell pellet was then resuspended in homogenization buffer (10 mM HEPES (Gibco #15630), pH 7.5, 1 mM EDTA (BioSolutions, #BIO260-15), 1 mM EGTA (Sigma, #E-4378), 0.01 mg/mL benzamidine (Sigma #B 6506), 0.01 mg/mL bacitracin (Sigma #B 0125), 0.005 mg/mL leupeptin (Sigma #L 8511), 0.005 mg/mL aprotinin (Sigma #A 1153)) and incubated on ice for 10 minutes. Cells were then lysed with 15 gentle strokes of a tight-fitting glass Dounce homogenizer. The homogenate was centrifuged at 1000×g (2200 rpm) for 10 minutes at 4 degrees Celsius. The supernatant was transferred into fresh centrifuge tubes on ice. The cell pellet was resuspended in homogenization buffer, and centrifuged again at 1000×g (2200 rpm) for 10 minutes at 4 degrees Celsius after which the supernatant was removed and the pellet resuspended in homogenization buffer. This process was repeated a third time, after which the supernatants were combined, Benzonase (Novagen # 71206) and MgCl2 (Fluka #63020) were added to final concentrations of 1 U/mL and 6 mM, respectively, and incubated on ice for one hour. The solution was then centrifuged at 25,000×g (15000 rpm) for 20 minutes at 4 degrees Celsius, the supernatant was discarded, and the pellet was resuspended in fresh homogenization buffer (minus Benzonase and MgCl2). After repeating the 25,000×g centrifugation step, the final membrane pellet was resuspended in homogenization buffer and frozen at −80 degrees Celsius. The protein concentration was determined using the Pierce BCA protein assay kit (Pierce reagents A #23223 and B #23224).
Test compounds were serially diluted in 100% DMSO (J. T. Baker #922401). 2 microL of each dilution was added to appropriate wells of a 96-well plate (each concentration in triplicate). Unlabeled Compound A (or Compound B), at a final concentration of 10 microM, was used to determine non-specific binding. [^3H]-Compound A (or [^3H]-Compound B) was diluted in binding buffer (50 mM Tris-HCl, pH 7.5, (Sigma #T7443), 10 mM MgCl2 (Fluka 63020), 1 mM EDTA (BioSolutions #BIO260-15), 0.15% bovine serum albumin (Sigma #A7511), 0.01 mg/mL benzamidine (Sigma #B 6506), 0.01 mg/mL bacitracin (Sigma #B 0125), 0.005 mg/mL leupeptin (Sigma #L 8511), 0.005 mg/mL aprotinin (Sigma #A 1153)) to a concentration of 60 nM, and 100 microL added to all wells of 96-well plate (Nalge Nunc # 267245). […]

Structure (SMILES) | Ki
CC(C)OC(=O)N1CCC(Oc2cc(N3CCc4cc(C(=O)N(C)C)ccc43)ncn2)CC1 [Example 9, 4-[6-(5-Dimethylcarbamoyl-2,3-dihydroindol-1-yl)-pyrimidin-4-yloxy]-piperidine-1-carboxylic acid isopropyl ester] | 58.8 nM and 45.2 nM
Cc1c(O[C@H]2[C@@H]3COC[C@H]2CN(C(=O)OC2(C)CC2)C3)ncnc1N1CCc2ncccc21 [Example 25, 1-Methylcyclopropyl (9-anti)-9-{[6-(2,3-dihydro-1H-pyrrolo[3,2-b]pyridin-1-yl)-5-methylpyrimidin-4-yl]oxy}-3-oxa-7-azabicyclo[3.3.1]nonane-7-carboxylate] | 39 nM and 34.7 nM
CC(C)OC(=O)N1CCC(Oc2cc(N3CCc4cc(C#N)ccc43)ncn2)CC1 [Example 10, Isopropyl 4-{[6-(5-cyano-2,3-dihydro-1H-indol-1-yl)pyrimidin-4-yl]oxy}piperidine-1-carboxylate] | 232 nM
Cc1c(O[C@@H]2[C@@H]3COC[C@H]2CN(C(=O)OC(C)C)C3)ncnc1N1CCc2ncccc21 [Example 29, Isopropyl (9-syn)-9-{[6-(2,3-dihydro-1H-pyrrolo[3,2-b]pyridin-1-yl)-5-methylpyrimidin-4-yl]oxy}-3-oxa-7-azabicyclo[3.3.1]nonane-7-carboxylate] | 73.8 nM
CC(C)OC(=O)N1CCC(Oc2cc(N3CCc4ncccc43)ncn2)CC1 [Example 12, Isopropyl 4-{[6-(2,3-dihydro-1H-pyrrolo[3,2-b]pyridin-1-yl)pyrimidin-4-yl]oxy}piperidine-1-carboxylate] | 6100 nM and 1350 nM and 2910 nM
CC(C)OC(=O)N1C[C@H]2COC[C@@H](C1)[C@H]2Oc1cc(N2CCc3cc(S(C)(=O)=O)ccc32)ncn1 [Example 1, Isopropyl 9-anti-({6-[5-(methylsulfonyl)-2,3-dihydro-1H-indol-1-yl]pyrimidin-4-yl}oxy)-3-oxa-7-azabicyclo[3.3.1]nonane-7-carboxylate] | 219 nM and 35.5 nM
CCC1(OC(=O)N2C[C@H]3COC[C@@H](C2)[C@H]3Oc2ncnc(N3CCc4ncccc43)c2C)CC1 [Example 26, 1-Ethylcyclopropyl (9-anti)-9-{[6-(2,3-dihydro-1H-pyrrolo-[3,2-b]pyridin-1-yl)-5-methylpyrimidin-4-yl]oxy}-3-oxa-7-azabicyclo[3.3.1]nonane-7-carboxylate] | 40.5 nM and 22.2 nM
CC(C)OC(=O)N1CCC(Oc2ncnc(N3CCc4cc(S(C)(=O)=O)ccc43)c2C#N)CC1 [Example 6, Isopropyl 4-({5-cyano-6-[5-(methylsulfonyl)-2,3-dihydro-1H-indol-1-yl]pyrimidin-4-yl}oxy)piperidine-1-carboxylate] | 1.87 nM and 5.02 nM
CC(C)(C)OC(=O)N1CCC(Oc2cc(N3CCc4cc(S(C)(=O)=O)ccc43)ncn2)C(F)C1 (racemic) [Example 15, tert-Butyl 3-fluoro-4-({6-[5-(methylsulfonyl)-2,3-dihydro-1H-indol-1-yl]pyrimidin-4-yl}oxy)piperidine-1-carboxylate] | 1.72 nM and 6.77 nM and 1.6 nM
Cc1c(O[C@H]2CCN(C(=O)OC3(C)CC3)C[C@H]2F)ncnc1N1CCc2ncccc21 [Example 17, 1-Methylcyclopropyl (3R,4S)-4-{[6-(2,3-dihydro-1H-pyrrolo[3,2-b]pyridin-1-yl)-5-methylpyrimidin-4-yl]oxy}-3-fluoropiperidine-1-carboxylate] | 2 nM and 5.04 nM and 2.43 nM and 4.23 nM and 1.7 nM and 5.67 nM and 13.8 nM and 11.9 nM and 2.45 nM and 6.9 nM
Cc1c(OC2CCN(C(=O)OC(C)C)CC2)ncnc1N1CCc2cc(S(C)(=O)=O)ccc21 [Example 8, Isopropyl 4-({5-methyl-6-[5-(methylsulfonyl)-2,3-dihydro-1H-indol-1-yl]pyrimidin-4-yl}oxy)piperidine-1-carboxylate] | 273 nM and 338 nM
CC(C)OC(=O)N1CCC(Oc2cc(N3CCc4cc(S(=O)(=O)CCO)ccc43)ncn2)CC1 [Example 11, Isopropyl 4-[(6-{5-[(2-hydroxyethyl)sulfonyl]-2,3-dihydro-1H-indol-1-yl}pyrimidin-4-yl)oxy]piperidine-1-carboxylate] | 72.8 nM
Cc1c(O[C@H]2CCN(C(=O)OC(C)(C)C)C[C@H]2F)ncnc1N1CCc2ncccc21 (racemic) [Example 16, tert-Butyl (3R,4S)-4-{[6-(2,3-dihydro-1H-pyrrolo[3,2-b]pyridin-1-yl)-5-methylpyrimidin-4-yl]oxy}-3-fluoropiperidine-1-carboxylate (racemic)] | 1.48 nM and 2.12 nM
Cc1c(O[C@H]2[C@@H]3COC[C@H]2CN(C(=O)OC2(C)CCC2)C3)ncnc1N1CCc2ncccc21 [Example 27, 1-Methylcyclobutyl (9-anti)-9-{[6-(2,3-dihydro-1H-pyrrolo[3,2-b]pyridin-1-yl)-5-methylpyrimidin-4-yl]oxy}-3-oxa-7-azabicyclo[3.3.1]nonane-7-carboxylate] | 20.8 nM and 13.8 nM
Cc1c(OC2CCN(C(=O)OC(C)C)CC2)ncnc1N1CCc2ncccc21 [Example 13, Isopropyl 4-{[6-(2,3-dihydro-1H-pyrrolo[3,2-b]pyridin-1-yl)-5-methylpyrimidin-4-yl]oxy}-piperidine-1-carboxylate] | 55.3 nM and 16 nM and 91.1 nM and 23.8 nM
Cc1c(O[C@H]2[C@@H]3COC[C@H]2CN(C(=O)OC(C)C)C3)ncnc1N1CCc2ncccc21 [Example 22, Isopropyl (9-anti)-9-{[6-(2,3-dihydro-1H-pyrrolo[3,2-b]pyridin-1-yl)-5-methylpyrimidin-4-yl]oxy}-3-oxa-7-azabicyclo[3.3.1]nonane-7-carboxylate] | 66.6 nM and 79.3 nM and 53 nM and 96.4 nM
